In PMC8158687, “Xanthones Active against Multidrug Resistance and Virulence Mechanisms of Bacteria” (Antibiotics, 2021):

Tests used:
[1] = system: S. aureus 272123; test: Efflux pump inhibition assay (real-time ethidium bromide accumulation); type: cell-based, Staphylococcus aureus; conditions: compound 50 µM, EB 1 µg/mL, minute 60
Protocol: Compounds 1–20 were assessed for their capability of modulating ethidium bromide (EB) accumulation on two resistant strains. […] However, norA is a core gene of the S. aureus as a species, which means that the NorA pump occurs in all S. aureus strains.
(§1) Salmonella enterica serovar Typhimurium SE03, was used as a Gram-negative bacterium. This strain has a deletion of the acrA gene, which was predicted with the least affinity for the compounds. The aim of these studies was to perform a first screening of these compounds and their ability to modulate the efflux of EB. […] The relative fluorescence index (RFI) was calculated based on the means of relative fluorescence units, depicted in Table 2.
(§2) Compounds 1–20 were evaluated for their ability to inhibit efflux pumps in SE03 and S. aureus 272123 strains, through the real-time fluorimetry, monitoring the intracellular accumulation of EB, an efflux pump substrate. This was determined by the automated method using a CLARIOstar Plus plate reader (BMG Labtech, Ortenberg, Germany). Reserpine and CCCP were applied at 25 µM as positive controls, and the solvent DMSO was applied at 1% v/v. The bacterial strains were incubated in an appropriate culture media (TSB—S. aureus 272123; LB-B—SE03) at 37 °C until they reached an optical density (OD) between 0.4 and 0.6 at λ = 600 nm. The culture was centrifuged at 13,000× g for 3 min, and the pellet washed and resuspended with PBS. The suspension was centrifuged again in the same conditions and resuspended in PBS. The compounds were applied at 50 µM in a solution of a non-toxic concentration of EB (1 µg/mL) in PBS. Then, 50 µL of this solution were transferred into a 96-well black microtiter plate (Greiner Bio-One Hungary Kft, Mosonmagyaróvár, Fertősor, Hungary), and 50 µL of bacterial suspension (OD600 0.4–0.6) were added to each well. The plates were placed into the CLARIOstar plate reader, and the fluorescence was monitored at excitation and emission wavelengths of 530 nm and 600 nm every minute for one hour on a real-time basis. From the real-time data, the activity of the compounds, namely the RFI of the last time point (minute 60) of the EB accumulation assay, was calculated according to the following formula:(1) RFI=RFtreated−RFuntreated/RFuntreated where RFtreated is the relative fluorescence (RF) at the last time point of EB accumulation curve in the presence of the compound, and RFuntreated is the RF at the last time point of the EB accumulation curve of the untreated control, having only the solvent (DMSO) control. The accumulation curves were designed using Microsoft Excel®.

[2] = system: SE03 (acrA gene-inactivated Salmonella enterica serovar Typhimurium SL1344); test: as above; type: cell-based; conditions: compound 50 µM, EB 1 µg/mL, minute 60
Protocol: as §1, §2

SMILES | RFI ± SD (relative fluorescence index) [1] | RFI ± SD (relative fluorescence index) [2]
O=c1c2ccccc2oc2c(O)cccc12 [Compound 1] | −0.36 ± 0.03 ^1 | −0.01 ± 0.05 ^6
O=c1c2ccccc2oc2ccc(O)c(O)c12 [Compound 3] | −0.05 ± 0.06 ^3 | 0.23 ± 0.04 ^8
Cc1cc(O)c(O)c2oc3ccccc3c(=O)c12 [Compound 6] | −0.91 ± 0.01 ^4 | −0.91 ± 0.01 ^9
Cc1cc(O)c(O)c2oc3cc(O)ccc3c(=O)c12 [Compound 7] | −0.92 ± 0.00 ^5 | −0.87 ± 0.02 ^10
COc1cc(C)c2c(=O)c3ccccc3oc2c1OC [Compound 8] | 0.15 ± 0.25 ^4 | 0.05 ± 0.11 ^9
COc1c(Cl)c(C)c2c(=O)c3ccccc3oc2c1OC [Compound 9] | −0.04 ± 0.26 ^4 | 0.05 ± 0.09 ^9
COc1ccc2c(=O)c3c(C)cc(OC)c(OC)c3oc2c1 [Compound 10] | 0.18 ± 0.20 ^5 | 0.24 ± 0.05 ^10
COc1ccc2c(=O)c3c(CBr)cc(OC)c(OC)c3oc2c1 [Compound 13] | 0.53 ± 0.20 ^5 | 1.16 ± 0.64 ^10
COc1cc(C=O)c2c(=O)c3ccccc3oc2c1O [Compound 14] | −0.28 ± 0.06 ^2 | 0.02 ± 0.02 ^7
COc1cc(C=O)c2c(=O)c3ccccc3oc2c1OC [Compound 15] | 0.08 ± 0.07 ^4 | 0.13 ± 0.09 ^9
COC(=O)c1cc(OC)c(OC)c2oc3cc(OC)ccc3c(=O)c12 [Compound 17] | −0.34 ± 0.02 ^5 | −0.29 ± 0.08 ^10
COc1cc(CNCc2ccc(Cl)cc2)c2c(=O)c3ccccc3oc2c1OC [Compound 18] | −0.01 ± 0.04 ^3 | 0.04 ± 0.04 ^8
